For assay [1], the system named is Pseudomonas putida. The experiment in a line: Inhibition of recombinant Pseudomonas putida C-terminal His-tagged phosphonatase.
In assay [2] the test system is Saccharomyces cerevisiae. The experiment in a line: Inhibition of yeast alcohol dehydrogenase.
Assay [3] relates to Bacteroides fragilis. The experiment in a line: Inhibition of recombinant Bacteroides fragilis phosphonopyruvate decarboxylase at 35 uM incubated for 3 mins by CD spectropolarimetric analysis.
The nature of assay [4]: Binding affinity to recombinant Bacteroides fragilis phosphonopyruvate decarboxylase using phosphonopyruvate as substrate.
Assay [5] concerns Bacteroides fragilis. The experiment in a line: Inhibition of recombinant Bacteroides fragilis phosphonopyruvate decarboxylase at 35 uM incubated for 3 mins by UV-Vis spectrophotometric analysis.
Assay [6] deals with Bacteroides fragilis. As to the kind of experiment: Irreversible inhibition of recombinant Bacteroides fragilis phosphonopyruvate decarboxylase at 10 to 50 uM using phosphonopyruvate as substrate.
In assay [7] the test system is Bacteroides fragilis. The experiment in a line: Inhibition of recombinant Bacteroides fragilis phosphonopyruvate decarboxylase assessed as fluoride ion release up to 75 uM incubated for 30 mins by TISAB 2 solution based ion-selective electrode assay.
Assay [8] relates to Bacteroides fragilis. As to the kind of experiment: Irreversible inhibition of recombinant Bacteroides fragilis phosphonopyruvate decarboxylase at 10 uM using phosphonopyruvate as substrate after overnight dialysis.

The source made the active and inactive calls. The rule behind the calls is not given here.

What is called Ki is a measure of affinity in units of concentration, obtained from inhibition or displacement.

In the case of `O=C(O)C(O)(O)C(F)(F)P(=O)(O)O`, the inhibition result in assay [1] and in assay [2] was “inactive” each time. In addition, the inhibition result in assay [3], in assay [5], in assay [7] and in assay [8] was “Active” each time. Moreover, the Ki in assay [4] came out at 600 nM. The TDI result in assay [6] is “Active”.
